Data as given in EPA's ToxValDB 9.5 (doi:10.2903/j.efsa.2009.190r).

Tests used:
Rattus norvegicus = conditions: for NOAEL: inhalation
Tagia sp. = conditions: acute; duration: 14 days; mortality
[1] = chronic, duration: 2 years, no effects
[2] = reproduction developmental, mortality
[3] = subchronic, duration: 90 days, no effects

Row | Structure (SMILES) | LD50 (Rattus norvegicus; acute, oral, mortality) [mg/kg-day] | NOAEL (Rattus norvegicus; [1]) [mg/kg-day] | NOAEL (Rattus norvegicus; [2]) [mg/kg-day] | NOAEL (Rattus norvegicus; [3]) [mg/kg-day] | LC50 (Tagia sp.) [mg/kg] | NOAEL (Rattus norvegicus; developmental, duration: 10 days, development) [mg/kg-day] | NOAEL (Rattus norvegicus; subchronic, duration: 90 days, mortality) [mg/kg-day]
1 | [Mg+2].[Mg+2].[Mg+2].[P-3].[P-3] [Magnesium phosphide] | 11.2 | 1.1 | 1.9 | 1.1 | 664 | – | –
2 | P [Phosphine] | – | 1.1 | 1.9 | 1.1 | – | 1.9 | 1.1
